Measurements taken from publication PMC10837422, “Early onset diagnosis in Alzheimer’s disease patients via amyloid-β oligomers-sensing probe in cerebrospinal fluid” (Nature Communications, 2024).

Legend:
[1] = biological target: T1, Amyloid-β 1–42 (Aβ1–42) oligomers (Homo sapiens, UniProt P05067); test: fluorescence saturation titration; hexamer fragment mapping assay; type: binding
T1 construct: gene APP; full-length Aβ1–42 synthetic peptide, oligomers

[2] = biological target: T2, Amyloid-β 1–42 (Aβ1–42) fibrils (Homo sapiens, UniProt P05067); test: ThT fluorescence turn-on during Aβ[…] self-assembly (reference dye); type: binding
T2 construct: gene APP
T2 sequence (P05067 672-713): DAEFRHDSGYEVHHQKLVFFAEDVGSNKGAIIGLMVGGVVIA

T1 sequence (P05067 672-713): as above

| Kd [1] [µM] | SMILES | ThT fluorescence turn-on during Aβ1-42 self-assembly (reference dye) [2] |
| --- | --- | --- |
| 0.303 ± 0.0947 | CC(C)CC1=[O+][B-](F)(F)OC(/C=C/c2ccc3nc(N(C)C)ccc3c2)=C1 [Q-OB] | – |
| – | Cc1ccc2c(c1)sc(-c1ccc(N(C)C)cc1)[n+]2C [ThT, thioflavin T] | matured Aβ aggregates formation, since ThT specifically detects cross-β-sheet via hydrophobic binding |
